From paper PMC12434536, “Radiosynthesis and Preclinical Evaluation of a Carbon-11 Labeled Phosphodiesterase 7 Inhibitor for PET Neuroimaging” (ACS Medicinal Chemistry Letters, 2025) come the findings set out here.

One test deals with T1, CYP1A2 (Homo sapiens, UniProt P05177).
T1 sequence (P05177 1-516): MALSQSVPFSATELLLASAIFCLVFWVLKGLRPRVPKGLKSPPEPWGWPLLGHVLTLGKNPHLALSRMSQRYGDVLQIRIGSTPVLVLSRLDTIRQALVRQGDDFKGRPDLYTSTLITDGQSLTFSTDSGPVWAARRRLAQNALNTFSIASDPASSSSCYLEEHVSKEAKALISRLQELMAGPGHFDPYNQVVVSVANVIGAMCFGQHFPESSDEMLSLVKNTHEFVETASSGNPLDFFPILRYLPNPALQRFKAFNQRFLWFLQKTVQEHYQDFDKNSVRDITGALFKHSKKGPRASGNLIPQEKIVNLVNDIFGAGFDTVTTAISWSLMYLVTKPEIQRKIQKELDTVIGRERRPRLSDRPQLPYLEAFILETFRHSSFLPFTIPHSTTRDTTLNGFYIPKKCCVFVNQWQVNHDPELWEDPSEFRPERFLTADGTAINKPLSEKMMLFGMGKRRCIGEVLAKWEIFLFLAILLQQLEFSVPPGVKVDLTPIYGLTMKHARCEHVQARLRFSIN
The test is described as follows: CYP450 isoform inhibition profiling, CYP1A2. The test is classed as in vitro ADME. On the procedure: page 5: protein-ligand complex were saved and were then loaded into Schrödinger Maestro to generate the ligand interaction plot. In vitro inhibitory assay to PDE7 of compound 27 and selectivity to other PDEs Functional activity of target compound 27 for inhibition of PDE7A activity and the selectivity over other PDE isozymes ([…], and 10A) were evaluated by Eurofins Panlabs Discovery Services and Reaction Biology Corp., respectively. Human recombinant enzymes were used for the assays. The inhibitory assays were performed and calculated in duplicate at 3 μM. If the inhibition percentage was less […] duplicate. CYP450 isoform metabolism and in vitro safety profiling The inhibitory constant of compound 26 toward cytochrome P450-dependent metabolic pathways was determined for individual CYP isoform (CYP1A2, CYP2C9, CYP2C19, CYP2D6, and CYP3A4). Reference inhibitors were included as positive controls. A 10 μM solution of compound 27 was used for initial screening. If the inhibition percentage was less than 50%, the experiment was stopped. […] gradient concentrations of compound 27 were used for IC 50 determination. The P450 reactions were detected at Ext/Em: 405 nm/460 nm (530 nm/605 nm for CYP2C9) in a S3 page 6: […] IC50 curves were plotted using a non-linear regression model with Graphpad Prism 6. […] Plasma and brain samples were quantified by LC-MS/MS method. […]

For the next test, the system named is PDE7. The test is described as follows: PET imaging in rats (baseline and self-blocking). The following applies: SD rats, self-blocking, 1 mg/kg. The test is classed as in vivo, Sprague-Dawley rats. The procedure: page 10: All animal experiments were approved by the Institutional Animal Care and Use Committee of Massachusetts General Hospital or the National Institute of Radiological Sciences (Japan). C57BL/6 mice (female; 8 weeks, 20-25 g) and Sprague-Dawley rats (male; 8-9 weeks; 264-310 g) were kept on a 12 h light/12 h dark cycle and were allowed food and water ad libitum. Rodent PET scans were carried out using a […] (Sofie Biosciences, Culver, CA, USA) or a Siemens Inveon PET/CT system. Animals were kept under anesthesia using 1-2% (v/v) isoflurane in oxygen during the scan. The radiotracer (1.85 MBq for mice; 42-53 MBq for rats) was injected into the tail vein via a preinstalled catheter. A dynamic scan in 3D list mode was acquired for 60 min. The PET dynamic images were reconstructed using the manufacturer's acquisition software. Volumes of interest, including whole brain, cortex, striatum, hippocampus, thalamus and cerebellum were placed using AMIDE / PMOD software. The radioactivity was decay-corrected and expressed as standardized uptake value (SUV = radioactivity per mL tissue / injected radioactivity × bodyweight). S8

Test [1] addresses T2, HEK293-PDE7B recombinant cell lines (Homo sapiens, UniProt Q9NP56).
T2 construct: host or cells: HEK293
The test can be described thus: In vitro cell uptake and blocking of [11C]27. Format: cell-based. The following applies: blocker 1 μM, 60 min incubation, PDE7B overexpressing HEK293 cells, n = 4. The procedure:
Control study: HEK293-PDE7B Recombinant cells (catalog#60412, BPS Bioscience) and HEK293 control cells (catalog# CRL-1573, ATCC) – both in logarithmic growth phase – were plated in a 24 well plate (2 × 10^5 cells per well) and cultured overnight. After 24 hr, each well was added 2 μCi of [ 11C]27, and incubated at 37 °C for 30 min or 60 min. The radioactive medium was aspirated and collected in a tube. The residual cells were washed twice with PBS, and then collected in the same tube. The cells were lysed with 1 N NaOH (200 μL) and washed twice with PBS, all the resulting solutions were collected in one tube.
The radioactivity in the collected supernatant and cell lysis buffer (600 μL/tube) was measured using a Cobra Model 5002/5003 gamma counter, respectively.
Blocking study: HEK293-PDE7B cells in logarithmic growth phase were plated in 24 well plate (2 × 10^5 cells per well) and cultured overnight. After 24 h, each well was added 2 μCi of [11C]27 with or without unlabeled reference compound 27 or BRL50481, respectively. The resulting culture medium contained 2 μCi of [ 11C]27, 1 µM of unlabeled compound 27 or BRL50481, and 5% DMSO. Cells were incubated at 37 °C for 60 min and samples were collected as described for the control study. The cell uptake was calculated according to the following eq.: cell uptake% = A lysis buffer/(A lysis buffer+Asupernate) (n = 4)

In another test the target is hERG channel (Homo sapiens, UniProt Q12809). The test is described as follows: In vitro safety: hERG channel inhibition. Format: biochemical. On the procedure:
time-dependent manner for 80 min with an acquisition interval of 2 min. IC50 curves were
plotted using a non-linear regression model with Graphpad Prism 6. The latter method was
further applied to assess the inhibitory constant of compound 27 to the hERG channel. […]
In general terms: Block of hERG is tested as a sign of cardiac risk.

A value given as a limit tells only on which side of the number the result lay.

T2 sequence (Q9NP56 whole entry): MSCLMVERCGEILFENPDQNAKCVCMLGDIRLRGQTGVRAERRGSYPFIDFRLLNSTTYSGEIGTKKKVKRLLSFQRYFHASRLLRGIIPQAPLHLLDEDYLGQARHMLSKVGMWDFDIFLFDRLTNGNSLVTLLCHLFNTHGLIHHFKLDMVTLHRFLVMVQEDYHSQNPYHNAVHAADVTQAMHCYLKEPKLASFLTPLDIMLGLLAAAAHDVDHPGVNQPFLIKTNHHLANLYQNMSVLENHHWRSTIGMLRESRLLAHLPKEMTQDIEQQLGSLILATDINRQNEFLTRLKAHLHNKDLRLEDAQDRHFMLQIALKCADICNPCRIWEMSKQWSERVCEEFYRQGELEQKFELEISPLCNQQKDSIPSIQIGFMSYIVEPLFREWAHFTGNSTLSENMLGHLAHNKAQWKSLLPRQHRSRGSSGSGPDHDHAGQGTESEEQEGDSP
Chain of hERG channel (Q12809 whole entry): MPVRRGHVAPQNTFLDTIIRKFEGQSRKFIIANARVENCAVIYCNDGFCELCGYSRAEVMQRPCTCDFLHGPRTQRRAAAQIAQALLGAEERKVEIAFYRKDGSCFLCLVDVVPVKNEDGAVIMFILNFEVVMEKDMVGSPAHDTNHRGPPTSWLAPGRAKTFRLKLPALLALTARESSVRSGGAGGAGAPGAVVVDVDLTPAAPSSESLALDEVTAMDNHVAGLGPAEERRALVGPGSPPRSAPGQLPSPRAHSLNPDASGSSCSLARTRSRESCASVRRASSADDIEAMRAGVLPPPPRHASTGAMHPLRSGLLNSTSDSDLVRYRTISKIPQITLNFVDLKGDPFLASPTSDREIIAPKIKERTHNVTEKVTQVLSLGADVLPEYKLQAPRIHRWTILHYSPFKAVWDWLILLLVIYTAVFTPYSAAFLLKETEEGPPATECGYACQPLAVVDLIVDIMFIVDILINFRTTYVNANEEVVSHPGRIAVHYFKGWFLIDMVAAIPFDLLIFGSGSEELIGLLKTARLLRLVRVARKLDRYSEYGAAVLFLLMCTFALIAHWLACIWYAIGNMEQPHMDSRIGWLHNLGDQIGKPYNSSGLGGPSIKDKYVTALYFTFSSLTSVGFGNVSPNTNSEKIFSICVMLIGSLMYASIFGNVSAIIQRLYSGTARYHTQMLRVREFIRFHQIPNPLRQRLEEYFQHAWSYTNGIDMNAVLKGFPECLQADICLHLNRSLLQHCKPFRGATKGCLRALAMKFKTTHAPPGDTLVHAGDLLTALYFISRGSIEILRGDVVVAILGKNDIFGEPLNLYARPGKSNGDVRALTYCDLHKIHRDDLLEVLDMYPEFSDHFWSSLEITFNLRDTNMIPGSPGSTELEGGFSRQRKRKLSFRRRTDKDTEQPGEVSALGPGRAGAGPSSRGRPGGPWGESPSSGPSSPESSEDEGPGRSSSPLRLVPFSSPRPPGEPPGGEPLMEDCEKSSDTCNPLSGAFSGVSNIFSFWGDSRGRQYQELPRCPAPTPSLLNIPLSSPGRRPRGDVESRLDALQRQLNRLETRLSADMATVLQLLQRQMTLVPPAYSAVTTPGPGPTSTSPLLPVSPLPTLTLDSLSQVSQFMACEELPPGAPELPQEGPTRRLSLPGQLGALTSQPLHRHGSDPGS

For the molecule `COc1ccc(Cl)c2c1C1(CCCCC1)NC(=O)N2` [Compound 27], the IC50 on CYP1A2 is 4.4 µM; against hERG channel, more than 100 µM. Besides, the “effect of pretreatment on [11C]27 brain uptake” value in the test on PDE7 is on record as “marginally reduced brain uptake”. Besides, the “blockade of [11C]27 cell uptake” value in test [1] was “ca. 90%”.

The term IC50 denotes the concentration needed to halve the response being measured. Low readings indicate greater potency in that assay, high ones weaker potency in that assay.
